# Reference: patent US20070112057A1, “Polymorphic forms of tegaserod maleate” (priority 2005, published 2007)
# Legend:
# [1] = cited from earlier work
# [2] = Weight loss measured by TGA; type: physicochemical; conditions: range of about 25° C. to about 200° C.
# Protocol: Form Z has a weight loss of about 0.1% by weight at the range of about 25° C. to about 200° C., as measured by TGA.
# [3] = Water absorption (hygroscopicity) test under 80% relative humidity; type: physicochemical; conditions: room temperature, 37 days
structure (smiles),measurement,setting,value
"CCCCCNC(=N)N/N=C/c1c[nH]c2ccc(OC)cc12.O=C(O)/C=C\C(=O)O [Tegaserod maleate, 3-(5-methoxy-1H-indole-3-ylmethylene)-N-pentylcarbazimidamide hydrogen maleate]",solubility in ethanol,[1]; ethanol,slightly soluble
same,solubility in water,[1]; water,very slightly soluble
"CCCCCNC(=N)N/N=C/c1c[nH]c2ccc(OC)cc12.O=C(O)/C=C\C(=O)O [Form Z, tegaserod maleate]",weight loss as measured by TGA,[2],about 0.1 % by weight
same,hygroscopicity (water absorption),[3],non hygroscopic
